One data set deals with tubulin. Description: Inhibition of tubulin assembly.
Data set [1] deals with A549 human lung cancer cell line. Description: Cytotoxic activity against A549 lung cancer cell line.

In the case of `COC(=O)Nc1nc2ccc(/C=C\c3cc(OC)c(OC)c(OC)c3)cc2[nH]1` [Compound 1], the “Activity as tubulin polymerization/assembly inhibitor (in words)” value in the data set on tubulin is given as “excellent activities”.
Turning to `COC(=O)Nc1nc2ccc(C(=O)c3ccc(OC)cc3O)cc2[nH]1` [Compound 2], the “Cytotoxic activity against A549 cell line (in words)” value in data set [1] was “no activity”. The “Activity as tubulin polymerization/assembly inhibitor (in words)” value in the data set on tubulin was “excellent activities”.
On the same counts, the results for `COC(=O)Nc1nc2ccc(C(=O)c3ccc(O)cc3O)cc2[nH]1` [Compound 3] are “no activity” and “inactive”.
As for `COC(=O)Nc1nc2ccc(C(=O)c3sccc3O)cc2[nH]1` [Compound 4], the “Activity as tubulin polymerization/assembly inhibitor (in words)” value with tubulin is listed as “excellent activities”.

These data come from publication PMC4416488 (Bioorganic & medicinal chemistry letters, 2015).
